ChEMBL document CHEMBL1201862, “PubChem BioAssay data set” (2004)
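These data come from cells grown in 96-well plates and exposed to compound for 48 hours at five concentrations. GI50 = concentration required for 50% inhibition of growth.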 The source made the active and inactive calls. Rule as the data show it: active = GI50 up to about 1.1 µM and inactive = higher.

Columns and labels:
Test in all cases: DTP human tumour cell line panel, 48 h
[1] = test system: M19-MEL
[2] = test system: UACC-62
[3] = test system: RPMI-8226
[4] = test system: HL-60
[5] = test system: TK-10
[6] = test system: SNB-75
[7] = test system: HCT-15
[8] = test system: OVCAR-8
[9] = test system: LOX IMVI
[10] = test system: K562
[11] = test system: SNB-19
[12] = test system: HOP-18
[13] = test system: SF-539
[14] = test system: SNB-78
[15] = test system: NCI-H522
[16] = test system: 786-0
[17] = test system: SK-OV-3
[18] = test system: HCC 2998
[19] = test system: Malme-3M
[20] = test system: COLO 205
[21] = test system: SF-295
[22] = test system: SN12C
[23] = test system: UO-31
[24] = test system: NCI-H460
[25] = test system: ACHN
[26] = test system: RXF 631
[27] = test system: U-251
[28] = test system: HT-29
[29] = test system: HCT-116
[30] = test system: NCI-H226
[31] = test system: SF-268
[32] = test system: SK-MEL-28
[33] = test system: EKVX
[34] = test system: SR
[35] = test system: XF498
[36] = test system: RXF 393
[37] = test system: LXFL 529
[38] = test system: HOP-62
[39] = test system: DLD-1
[40] = test system: UACC-257
[41] = test system: DMS-114
[42] = test system: SK-MEL-2
[43] = test system: HOP-92
[44] = test system: KM12
[45] = test system: SW-620
[46] = test system: M14
[47] = test system: CCRF-CEM
[48] = test system: OVCAR-5
[49] = test system: KM-20L2
[50] = test system: SK-MEL-5
[51] = test system: OVCAR-4
[52] = test system: IGROV-1
[53] = test system: NCI-H23
[54] = test system: MOLT-4
[55] = test system: A498
[56] = test system: A549
[57] = test system: OVCAR-3
[58] = test system: CAKI-1
[59] = test system: DMS-273

CCN(CC)C(=S)S [DITIOCARB SODIUM]
GI50 [1]: 0.439 µM (active) | GI50 [2]: 0.388 µM (active) | GI50 [3]: 0.528 µM (active) | GI50 [4]: 0.294 µM (active) | GI50 [5]: > 100 µM (inactive) | GI50 [6]: 0.261 µM (active) | GI50 [7]: > 62.5 µM | GI50 [8]: > 56.1 µM (inactive) | GI50 [9]: > 55.5 µM (inactive) | GI50 [10]: 0.138 µM (active) | GI50 [11]: > 100 µM (inactive) | GI50 [12]: > 100 µM (inactive) | GI50 [13]: > 60.4 µM (inactive) | GI50 [14]: > 100 µM (inactive) | GI50 [15]: 0.103 µM (active) | GI50 [16]: 67.9 µM (inactive) | GI50 [17]: > 100 µM (inactive) | GI50 [18]: 33.6 µM (inactive) | GI50 [19]: 19.1 µM (inactive) | GI50 [20]: 0.0713 µM (active) | GI50 [21]: > 79.6 µM (inactive) | GI50 [22]: > 70 µM (inactive) | GI50 [23]: > 100 µM (inactive) | GI50 [24]: 0.373 µM (active) | GI50 [25]: 53.7 µM (inactive) | GI50 [26]: 3.27 µM (inactive) | GI50 [27]: 0.299 µM (active) | GI50 [28]: 0.216 µM (active) | GI50 [29]: 0.0323 µM (active) | GI50 [30]: > 100 µM (inactive) | GI50 [31]: > 79.1 µM (inactive) | GI50 [32]: > 47.9 µM (inactive) | GI50 [33]: > 100 µM (inactive) | GI50 [34]: 0.0354 µM (active) | GI50 [35]: 0.221 µM (active) | GI50 [36]: > 57.4 µM (inactive) | GI50 [37]: > 100 µM (inactive) | GI50 [38]: > 100 µM (inactive) | GI50 [39]: 88.5 µM (inactive) | GI50 [40]: 21.2 µM (inactive) | GI50 [41]: 0.0968 µM (active) | GI50 [42]: > 81.1 µM (inactive) | GI50 [43]: > 76.6 µM (inactive) | GI50 [44]: 0.646 µM (active) | GI50 [45]: 0.117 µM (active) | GI50 [46]: 41.7 µM (inactive) | GI50 [47]: 0.0443 µM (active) | GI50 [48]: > 100 µM (inactive) | GI50 [49]: 69 µM (inactive) | GI50 [50]: 1.63 µM (inactive)

N=C(N)n1ncc(Cl)c(Cl)c1=O
GI50 [1]: 1.69 µM (inactive) | GI50 [2]: 2.48 µM (inactive) | GI50 [3]: 2.28 µM (inactive) | GI50 [4]: 2.21 µM (inactive) | GI50 [5]: 19.4 µM (inactive) | GI50 [6]: 2.99 µM (inactive) | GI50 [7]: 1.87 µM | GI50 [51]: 1.91 µM (inactive) | GI50 [8]: 2.15 µM (inactive) | GI50 [10]: 2.32 µM (inactive) | GI50 [11]: 4.16 µM (inactive) | GI50 [12]: 1.38 µM (inactive) | GI50 [13]: 2.34 µM (inactive) | GI50 [14]: 1.98 µM (inactive) | GI50 [15]: 1.79 µM (inactive) | GI50 [16]: 2.76 µM (inactive) | GI50 [52]: 11.1 µM (inactive) | GI50 [17]: 17.9 µM (inactive) | GI50 [19]: 2.21 µM (inactive) | GI50 [20]: 1.88 µM (inactive) | GI50 [53]: 2.45 µM (inactive) | GI50 [54]: 2.02 µM (inactive) | GI50 [21]: 10.8 µM (inactive) | GI50 [22]: 2.69 µM (inactive) | GI50 [23]: 2.38 µM (inactive) | GI50 [24]: 5.97 µM (inactive) | GI50 [25]: 3.81 µM (inactive) | GI50 [26]: 1.81 µM (inactive) | GI50 [27]: 7.11 µM (inactive) | GI50 [29]: 1.73 µM (inactive) | GI50 [55]: 18.6 µM (inactive) | GI50 [30]: 5.25 µM (inactive) | GI50 [31]: 3.11 µM (inactive) | GI50 [32]: 2.32 µM (inactive) | GI50 [33]: 2.36 µM (inactive) | GI50 [56]: 17.1 µM (inactive) | GI50 [35]: 1.81 µM (inactive) | GI50 [37]: 1.8 µM (inactive) | GI50 [39]: 2.38 µM (inactive) | GI50 [40]: 2.13 µM (inactive) | GI50 [57]: 1.91 µM (inactive) | GI50 [41]: 1.85 µM (inactive) | GI50 [42]: 2.47 µM (inactive) | GI50 [43]: 2.43 µM (inactive) | GI50 [44]: 6.5 µM (inactive) | GI50 [45]: 1.88 µM (inactive) | GI50 [46]: 1.98 µM (inactive) | GI50 [47]: 2.15 µM (inactive) | GI50 [48]: 15.2 µM (inactive) | GI50 [58]: 1.81 µM (inactive) | GI50 [59]: 2.28 µM (inactive) | GI50 [49]: 4.33 µM (inactive) | GI50 [50]: 4.39 µM (inactive)

COC(=O)c1ccccc1NC(=O)C(=O)Cc1nc2c3c(ccc2nc1O)C(=O)c1ccccc1C3=O
GI50 [1]: 6.56 µM (inactive) | GI50 [2]: 4.48 µM (inactive) | GI50 [3]: 8.2 µM (inactive) | GI50 [5]: 23.8 µM (inactive) | GI50 [6]: 28.1 µM (inactive) | GI50 [7]: 21.9 µM | GI50 [51]: 9.06 µM (inactive) | GI50 [8]: 24.3 µM (inactive) | GI50 [9]: 12.5 µM (inactive) | GI50 [10]: 23.9 µM (inactive) | GI50 [11]: 12.6 µM (inactive) | GI50 [12]: > 100 µM (inactive) | GI50 [13]: 23.9 µM (inactive) | GI50 [14]: 34 µM (inactive) | GI50 [15]: 9.14 µM (inactive) | GI50 [16]: 16.2 µM (inactive) | GI50 [52]: 15.7 µM (inactive) | GI50 [17]: 10.1 µM (inactive) | GI50 [18]: 16.8 µM (inactive) | GI50 [19]: 8.26 µM (inactive) | GI50 [20]: 15.8 µM (inactive) | GI50 [53]: 11.5 µM (inactive) | GI50 [54]: 10.3 µM (inactive) | GI50 [22]: 29.6 µM (inactive) | GI50 [23]: 12.2 µM (inactive) | GI50 [24]: 16.2 µM (inactive) | GI50 [25]: 25 µM (inactive) | GI50 [26]: 25.2 µM (inactive) | GI50 [27]: 17.1 µM (inactive) | GI50 [28]: 35.9 µM (inactive) | GI50 [29]: 9.29 µM (inactive) | GI50 [55]: 35.1 µM (inactive) | GI50 [30]: 4.48 µM (inactive) | GI50 [31]: 6.38 µM (inactive) | GI50 [32]: 15.7 µM (inactive) | GI50 [33]: 5.21 µM (inactive) | GI50 [56]: 14 µM (inactive) | GI50 [35]: 26.7 µM (inactive) | GI50 [36]: 2.08 µM (inactive) | GI50 [37]: 22.6 µM (inactive) | GI50 [38]: 13.9 µM (inactive) | GI50 [39]: 6.35 µM (inactive) | GI50 [40]: 16.3 µM (inactive) | GI50 [57]: 15 µM (inactive) | GI50 [41]: 7.62 µM (inactive) | GI50 [42]: 15 µM (inactive) | GI50 [43]: 15.8 µM (inactive) | GI50 [44]: 5.26 µM (inactive) | GI50 [45]: 5.56 µM (inactive) | GI50 [46]: 12.7 µM (inactive) | GI50 [47]: 3.75 µM (inactive) | GI50 [48]: 79.4 µM (inactive) | GI50 [58]: 10.9 µM (inactive) | GI50 [59]: 11.8 µM (inactive) | GI50 [49]: 32.7 µM (inactive) | GI50 [50]: 2.99 µM (inactive)
